Data reported in patent US7550599B2, “Water compatible sterically hindered alkoxyamines and hydroxy substituted alkoxyamines” (Ciba Specialty Chemicals Corporation, priority 2003, dated 2009).
Blank lines part the entries; values can stand above or below the compound they belong to.

Experiments:
[1] = Solubility in 50% butyl carbitol / 50% water; type: physicochemical; settings: 50% butyl carbitol / 50% water by weight; stirred 30 minutes
Description: (§1) The solubility of the instant compounds is evaluated in polar solvent systems. A solution of 50% butyl carbitol by weight and 50% water by weight is prepared. The instant compounds are added to this solution, stirred for 30 minutes, and sampled for analysis. Samples containing bis(1-octyloxy-2,2,6,6-tetramethylpiperidin-4-yl)sebacate and 4-hydroxy-1-(2-hydroxy-2-methylpropoxy)-2,2,6,6-tetramethylpiperidine are filtered to remove any undissolved residue and all samples are analyzed by high pressure liquid chromatography or gas chromatography.

[2] = Solubility in 50% butyl cellusolve / 50% water; type: physicochemical; settings: 50% butyl cellusolve / 50% water by weight; stirred 30 minutes
Description: as §1, with “cellusolve” for “carbitol”, “solution” for “solution,”

[3] = Solubility in 25% butyl cellusolve / 75% water; type: physicochemical; settings: 25% butyl cellusolve / 75% water by weight; stirred 30 minutes
Description: as §1, with “of 25%” for “of 50%”, “butyl cellusolve” for “butyl carbitol”, “and 75%” for “and 50%”, “containing bis[…]” for “containing bis(1-octyloxy-2,2,6,6-tetramethylpiperidin-4-yl)sebacate”

Solubility in water = type: physicochemical; settings: stirred 30 minutes
Description: as §1, with “systems.” for “systems. A solution of 50% butyl carbitol by weight and 50% water by weight is prepared.”, “water,” for “this solution,”

[4] = Compatibility (clarity) in water borne urethane/acrylic copolymer coating, Example 101; type: physicochemical; settings: 2% by weight stabilizer; haziness = incompatibility
Description: Formulation Reference: NeoResins, Inc., Formulation WB-2010, Technical Brochure, August, 2000.
(§2) The following components are mixed together under good agitation:
This solution is added to a 4 ounce clear glass jar containing 72.85 parts of NeoPac R-9699 under vigorous agitation and agitated for 10 minutes. Optionally, a defoamer, like Dehydran 1620 (Henkel), and a flash rusting agent, like Heiscore XAB (Cas Chem), are added. The lid is placed securely on the jar. The solidified coatings are visually observed for clarity after solidification. The development of opacity or haziness is indicative of an incompatibility between the hindered amine stabilizer and the formulated coating.

[5] = Compatibility (clarity) in alkali-soluble water-borne acrylic copolymer coating, liquid in jar, Example 112; type: physicochemical; settings: 2% by weight stabilizer; haziness = incompatibility
Description: Formulation Reference: NeoResins, Inc., Formulation WB-2065, Technical Brochure.
as §2
(§3) This solution is added to a 4 ounce clear glass jar containing 54.14 parts of NeoCryl BT-520 and 0.43 parts of Instant Stabilizer under vigorous agitation and is agitated for 10 minutes. The lid is placed securely on the jar. The liquid coating samples are visually observed for clarity over time. The development of opacity or haziness is indicative of an incompatibility between the hindered amine stabilizer and the formulated coating.

[6] = Compatibility (clarity) in two component water-borne polyurethane coating, jar, Example 113; type: physicochemical; settings: 2% by weight stabilizer, with UVA; haziness = incompatibility
Description: Formulation Reference: Bayer Corp., 2K Waterborne Clear, Notebook #820894-A, Technical Brochure.
as §2
as §3, with “15.56” for “54.14”, “Bayhydur XP-7165” for “NeoCryl BT-520”, “3.91” for “0.43”, “Exxate 700” for “Instant Stabilizer”, “solidified” for “liquid”

[7] = Compatibility (clarity) of acrylic copolymer coating in Petri dish, Example 114; type: physicochemical; settings: coating of Example 112; oven 65 C thirty minutes; 2% by weight stabilizer
Description: (§4) The hindered amine test stabilizers are incorporated into a coating system as described in Example 112. A 9.5-10 gram sample of each of the liquid coatings is added to a 100 mm×15 mm Petri dish and is placed in an oven at 65 C for thirty minutes. The samples are taken out of the oven, allowed to cool, and are visually observed for clarity over time. The development of opacity or haziness is indicative of an incompatibility between the hindered amine stabilizer and the formulated coating.

[8] = Compatibility (clarity) of polyurethane coating in Petri dish, Example 115; type: physicochemical; settings: coating of Example 113; oven 75 C 120 minutes; 2% by weight stabilizer
Description: as §4, with “113.” for “112.”, “75” for “65”, “120” for “thirty”

[9] = Ink jet media light fastness, cyan, Example 31; settings: 100% print density, office fluorescent lighting
Description: (§5) A resin-coated paper impregnated with inorganic adsorbent particles (Konica QP Photoglossy ink jet paper, Konica Corp.) is purchased. On the ink-receiving layer, a 0.8 wt % methanol solution of the instant compounds is applied in an amount to achieve 650-700 mg/m^2, unless otherwise stated. The paper is allowed to dry under ambient temperature and pressure for 24 hours. Separately, test patterns (cyan) are printed on the treated sheets using a Hewlett Packard DeskJet 970 Cxi printer at 100% print density. The obtained prints are left to dry at ambient temperature and pressure for 24 hours. Color densities and CIEL*a*b coordinates before and after exposure are measured using X-Rite 938 Spectrodensitometer. Exposures are carried out using normal office fluorescent lighting.

[10] = Ink jet media light fastness, magenta, Example 32; settings: 100% print density, office fluorescent lighting
Description: as §5, with “(magenta)” for “(cyan)”

[11] = Ink jet media light fastness, yellow, Example 33; settings: 50% print density as printed, office fluorescent lighting, 650-700 mg/m2
Description: as §5, with “stated otherwise.” for “otherwise stated.”, “(yellow)” for “(cyan)”, “50%” for “100%”

[12] = Ink jet media light fastness, cyan, Example 34; settings: 50% print density, office fluorescent lighting
Description: as §5, with “50%” for “100%”

[13] = Ink jet media light fastness, yellow, Example 36; settings: 50% print density, office fluorescent lighting, 650-700 mg/m2
Description: as §5, with “stated otherwise.” for “otherwise stated.”, “(yellow)” for “(cyan)”, “50%” for “100%”

Solubility (% by weight) [1]: 0.2 % by weight
Solubility (% by weight) [2]: 0.7 % by weight
Solubility (% by weight) [3]: <0.1 % by weight
Solubility (% by weight) (Solubility in water): <0.1 % by weight
SMILES: CCCCCCCCON1C(C)(C)CC(OC(=O)CCCCCCCCC(=O)OC2CC(C)(C)N(OCCCCCCCC)C(C)(C)C2)CC1(C)C [HALS A, bis(1-octyloxy-2,2,6,6-tetramethylpiperidin-4-yl) sebacate, reference compound]

Solidified coating in jar, clarity, 0 days [4]: clear
Solidified coating in jar, clarity, 1 days [4]: clear
Solidified coating in jar, clarity, 19 days [4]: clear
SMILES: CC(=O)O.CCCCN(c1nc(NCCNCCNCCN)nc(N(CCCC)C2CC(C)(C)N(OC3CCCCC3)C(C)(C)C2)n1)C1CC(C)(C)N(OC2CCCCC2)C(C)(C)C1 [I]

Solidified coating in jar, clarity, 0 days [4]: clear
Solidified coating in jar, clarity, 1 days [4]: clear
Solidified coating in jar, clarity, 19 days [4]: clear
SMILES: CCCCN(c1nc(Nc2ccc(Cl)c(C(=O)O)c2)nc(N(CCCC)C2CC(C)(C)N(OC3CCCCC3)C(C)(C)C2)n1)C1CC(C)(C)N(OC2CCCCC2)C(C)(C)C1 [G]

Solidified coating in jar, clarity, 0 days [4]: clear
Solidified coating in jar, clarity, 1 days [4]: clear
Solidified coating in jar, clarity, 19 days [4]: clear
SMILES: CCCCN(c1nc(NCCN2CCNCC2)nc(N(CCCC)C2CC(C)(C)N(OC3CCCCC3)C(C)(C)C2)n1)C1CC(C)(C)N(OC2CCCCC2)C(C)(C)C1.Cl [J]

Solidified coating in jar, clarity, 0 days [4]: clear
Solidified coating in jar, clarity, 1 days [4]: clear
Solidified coating in jar, clarity, 19 days [4]: clear
SMILES: CON1C(C)(C)CC(NCCOCCOCCNC2CC(C)(C)N(OC)C(C)(C)C2)CC1(C)C [L]

Solidified coating in jar, clarity, 0 days [4]: hazy
Solidified coating in jar, clarity, 1 days [4]: hazy
Solidified coating in jar, clarity, 19 days [4]: hazy
Liquid coating in jar, clarity, 0 [5]: hazy
Liquid coating in jar, clarity, 1 Month [5]: hazy
Liquid coating in jar, clarity, Day 1 [5]: hazy
Solidified coating in jar, clarity, 0 [6]: hazy
Solidified coating in jar, clarity, 1 Month [6]: hazy
Solidified coating in jar, clarity, Day 1 [6]: hazy
Solidified coating in Petri Dish, clarity, 0 [7]: hazy
Solidified coating in Petri Dish, clarity, 1 Month [7]: hazy
Solidified coating in Petri Dish, clarity, Day 1 [7]: hazy
Solidified coating in Petri Dish, clarity, 0 [8]: hazy
Solidified coating in Petri Dish, clarity, 1 Month [8]: hazy
Solidified coating in Petri Dish, clarity, Day 1 [8]: hazy
SMILES: CCCCCCCCON1C(C)(C)CC(OC(=O)CCCCCCCCC(=O)OC2CC(C)(C)N(OCCCCCCCC)C(C)(C)C2)CC1(C)C [B]

SMILES: CC(C)(O)CON1C(C)(C)CC(NCCO)CC1(C)C.Cl [Example 22]
DE for cyan after 4 weeks ([9]; 650-700 mg/m2): 5.26
DE for cyan after 4 weeks ([9]; (2x) 1300 to 1400 mg/m2): 4.62
DE for magenta after 4 weeks ([10]; 650-700 mg/m2): 25.20
DE for magenta after 4 weeks ([10]; (2x) 1300 to 1400 mg/m2): 21.96
DE for yellow after 4 weeks [11]: 5.53
DE for cyan after 4 weeks ([12]; 650-700 mg/m2): 5.98
DE for cyan after 4 weeks ([12]; (2x) 1300 to 1400 mg/m2): 5.11
DE for yellow after 4 weeks [13]: 3.15

Solubility (% by weight) [1]: ≧20 % by weight
Solubility (% by weight) [2]: ≧20 % by weight
Solubility (% by weight) [3]: ≧18 % by weight
Solubility (% by weight) (Solubility in water): ≧8 % by weight
SMILES: CC(C)(O)CON1C(C)(C)CC(NCC(=O)[O-])CC1(C)C.[K+] [Example 10]

SMILES: CC(C)(O)CON1C(C)(C)CC(=NO)CC1(C)C [Example 2]
DE for cyan after 4 weeks ([9]; 650-700 mg/m2): 4.69
DE for yellow after 4 weeks [11]: 3.87
DE for cyan after 4 weeks ([12]; 650-700 mg/m2): 5.53
DE for yellow after 4 weeks [13]: 1.36

Solidified coating in jar, clarity, 0 days [4]: clear
Solidified coating in jar, clarity, 1 days [4]: clear
Solidified coating in jar, clarity, 19 days [4]: clear
SMILES: CCCCN(c1nc(Nc2ccc(S(=O)(=O)O)cc2)nc(N(CCCC)C2CC(C)(C)N(OC3CCCCC3)C(C)(C)C2)n1)C1CC(C)(C)N(OC2CCCCC2)C(C)(C)C1.Cl [H]

SMILES: CC(C)(O)CON1C(C)(C)CC(NCCO)CC1(C)C [Example 1]
DE for cyan after 4 weeks ([9]; 650-700 mg/m2): 4.21
DE for magenta after 4 weeks ([10]; 650-700 mg/m2): 20.23
DE for cyan after 4 weeks ([12]; 650-700 mg/m2): 5.29

Solubility (% by weight) [1]: 13.4 % by weight
Solubility (% by weight) [2]: 15.5 % by weight
Solubility (% by weight) [3]: 13.6 % by weight
Solubility (% by weight) (Solubility in water): 1.4 % by weight
SMILES: CC(C)(O)CON1C(C)(C)CC(O)CC1(C)C [HALS B, 4-hydroxy-1-(2-hydroxy-2-methylpropoxy)-2,2,6,6-tetramethylpiperidine, reference compound]
